Experiment [1] deals with Mitogen-activated protein kinase 11 (Homo sapiens, UniProt Q15759).
In experiment [2] the target is Non-receptor tyrosine-protein kinase TYK2 (Homo sapiens, UniProt P29597).
The target of experiment [3] is Receptor-interacting serine/threonine-protein kinase 2 (Homo sapiens, UniProt O43353).
The target of experiment [4] is Cyclin-dependent kinase 13 (Homo sapiens, UniProt Q14004).
The target in experiment [5] is cAMP-dependent protein kinase catalytic subunit beta (Homo sapiens, UniProt P22694).
Experiment [6] deals with Serine/threonine-protein kinase MRCK gamma (Homo sapiens, UniProt Q6DT37).
Sequence of Serine/threonine-protein kinase MRCK gamma (Q6DT37 whole entry): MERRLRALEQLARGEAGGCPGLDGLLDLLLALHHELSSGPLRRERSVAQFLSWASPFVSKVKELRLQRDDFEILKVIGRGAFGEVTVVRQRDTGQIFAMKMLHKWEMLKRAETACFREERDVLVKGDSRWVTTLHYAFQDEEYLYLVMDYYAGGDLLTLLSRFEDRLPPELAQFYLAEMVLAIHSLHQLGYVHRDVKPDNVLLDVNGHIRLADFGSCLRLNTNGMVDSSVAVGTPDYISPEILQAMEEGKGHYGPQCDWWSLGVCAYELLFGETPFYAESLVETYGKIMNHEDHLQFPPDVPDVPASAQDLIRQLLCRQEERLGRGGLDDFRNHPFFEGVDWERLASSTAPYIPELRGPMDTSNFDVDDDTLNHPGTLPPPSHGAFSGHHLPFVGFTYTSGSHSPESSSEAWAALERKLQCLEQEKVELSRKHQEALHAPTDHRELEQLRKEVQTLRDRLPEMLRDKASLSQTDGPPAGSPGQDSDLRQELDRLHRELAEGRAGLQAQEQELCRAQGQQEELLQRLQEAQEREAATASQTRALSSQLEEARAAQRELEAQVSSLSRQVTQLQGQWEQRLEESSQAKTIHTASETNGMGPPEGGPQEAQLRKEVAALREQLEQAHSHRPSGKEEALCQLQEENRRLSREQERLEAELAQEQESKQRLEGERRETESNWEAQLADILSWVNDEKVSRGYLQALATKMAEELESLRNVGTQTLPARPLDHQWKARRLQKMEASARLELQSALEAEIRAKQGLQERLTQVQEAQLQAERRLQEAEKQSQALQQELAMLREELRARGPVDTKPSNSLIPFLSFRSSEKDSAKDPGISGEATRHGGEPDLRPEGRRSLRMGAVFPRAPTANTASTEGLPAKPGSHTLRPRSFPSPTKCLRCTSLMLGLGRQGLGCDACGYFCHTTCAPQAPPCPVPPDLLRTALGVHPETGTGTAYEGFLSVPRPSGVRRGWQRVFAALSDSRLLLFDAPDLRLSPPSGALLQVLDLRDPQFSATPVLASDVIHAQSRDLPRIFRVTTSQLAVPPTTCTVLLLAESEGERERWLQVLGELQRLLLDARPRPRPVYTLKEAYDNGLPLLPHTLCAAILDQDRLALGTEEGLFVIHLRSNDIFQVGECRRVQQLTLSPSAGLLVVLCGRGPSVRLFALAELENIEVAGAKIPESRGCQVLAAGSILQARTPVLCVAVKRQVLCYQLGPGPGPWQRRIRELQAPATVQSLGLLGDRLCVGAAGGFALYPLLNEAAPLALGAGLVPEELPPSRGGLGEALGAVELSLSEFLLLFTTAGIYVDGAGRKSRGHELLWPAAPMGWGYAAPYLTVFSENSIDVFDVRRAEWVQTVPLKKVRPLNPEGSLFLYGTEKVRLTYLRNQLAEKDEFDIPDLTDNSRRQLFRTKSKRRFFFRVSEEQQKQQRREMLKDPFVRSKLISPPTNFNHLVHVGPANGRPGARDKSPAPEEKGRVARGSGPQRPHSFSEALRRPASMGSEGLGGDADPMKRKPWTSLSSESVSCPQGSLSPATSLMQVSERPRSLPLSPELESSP
In experiment [7] the target is BMP-2-inducible protein kinase (Homo sapiens, UniProt Q9NSY1).
For experiment [8], the target named is cAMP-dependent protein kinase type II-alpha regulatory subunit (Homo sapiens, UniProt P13861).
Sequence of cAMP-dependent protein kinase type II-alpha regulatory subunit (P13861 whole entry): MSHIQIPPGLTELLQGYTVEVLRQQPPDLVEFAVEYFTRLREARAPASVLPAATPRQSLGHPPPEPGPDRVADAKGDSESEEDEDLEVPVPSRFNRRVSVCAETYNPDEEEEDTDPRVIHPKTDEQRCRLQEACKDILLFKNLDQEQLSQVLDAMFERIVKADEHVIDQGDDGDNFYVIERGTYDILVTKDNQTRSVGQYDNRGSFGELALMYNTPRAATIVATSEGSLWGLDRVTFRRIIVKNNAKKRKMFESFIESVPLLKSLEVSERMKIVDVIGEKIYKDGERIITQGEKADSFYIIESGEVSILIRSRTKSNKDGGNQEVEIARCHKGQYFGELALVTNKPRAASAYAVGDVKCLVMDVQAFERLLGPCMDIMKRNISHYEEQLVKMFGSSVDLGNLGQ
Experiment [9] has as its target Bone morphogenetic protein receptor type-1A (Homo sapiens, UniProt P36894).
In experiment [10] the target is Tyrosine-protein kinase CSK (Homo sapiens, UniProt P41240).
Sequence of Tyrosine-protein kinase CSK (P41240 whole entry): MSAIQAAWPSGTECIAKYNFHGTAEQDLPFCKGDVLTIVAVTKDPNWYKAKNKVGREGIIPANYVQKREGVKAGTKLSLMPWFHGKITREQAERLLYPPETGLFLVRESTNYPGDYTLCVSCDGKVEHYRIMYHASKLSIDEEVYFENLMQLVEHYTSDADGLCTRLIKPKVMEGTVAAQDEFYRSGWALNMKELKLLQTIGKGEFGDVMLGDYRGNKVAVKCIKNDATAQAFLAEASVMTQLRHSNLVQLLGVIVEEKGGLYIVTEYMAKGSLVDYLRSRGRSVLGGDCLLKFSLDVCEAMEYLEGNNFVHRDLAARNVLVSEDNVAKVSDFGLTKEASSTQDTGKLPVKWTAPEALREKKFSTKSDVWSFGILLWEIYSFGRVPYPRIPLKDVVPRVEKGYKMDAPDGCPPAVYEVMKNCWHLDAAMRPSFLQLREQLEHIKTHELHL
The target in experiment [11] is Bone morphogenetic protein receptor type-1B (Homo sapiens, UniProt O00238).
Sequence of Bone morphogenetic protein receptor type-1B (O00238 whole entry): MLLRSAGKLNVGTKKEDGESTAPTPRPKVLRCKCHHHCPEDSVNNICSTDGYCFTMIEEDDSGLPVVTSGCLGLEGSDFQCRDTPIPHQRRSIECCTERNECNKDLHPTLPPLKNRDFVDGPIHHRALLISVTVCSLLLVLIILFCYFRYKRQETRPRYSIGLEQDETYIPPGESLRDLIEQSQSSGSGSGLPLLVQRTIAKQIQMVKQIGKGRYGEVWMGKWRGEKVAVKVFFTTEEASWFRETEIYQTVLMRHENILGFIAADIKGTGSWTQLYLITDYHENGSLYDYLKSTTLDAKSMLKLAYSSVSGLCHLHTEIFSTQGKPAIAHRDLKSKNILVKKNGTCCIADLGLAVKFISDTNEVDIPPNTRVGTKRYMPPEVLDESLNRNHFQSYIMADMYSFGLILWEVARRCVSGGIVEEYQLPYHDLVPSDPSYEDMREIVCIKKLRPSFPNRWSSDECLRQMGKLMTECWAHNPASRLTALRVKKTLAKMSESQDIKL
The target of experiment [12] is T1, STE20-related kinase adapter protein alpha (Homo sapiens, UniProt Q7RTN6).
T1 sequence (Q7RTN6 whole entry): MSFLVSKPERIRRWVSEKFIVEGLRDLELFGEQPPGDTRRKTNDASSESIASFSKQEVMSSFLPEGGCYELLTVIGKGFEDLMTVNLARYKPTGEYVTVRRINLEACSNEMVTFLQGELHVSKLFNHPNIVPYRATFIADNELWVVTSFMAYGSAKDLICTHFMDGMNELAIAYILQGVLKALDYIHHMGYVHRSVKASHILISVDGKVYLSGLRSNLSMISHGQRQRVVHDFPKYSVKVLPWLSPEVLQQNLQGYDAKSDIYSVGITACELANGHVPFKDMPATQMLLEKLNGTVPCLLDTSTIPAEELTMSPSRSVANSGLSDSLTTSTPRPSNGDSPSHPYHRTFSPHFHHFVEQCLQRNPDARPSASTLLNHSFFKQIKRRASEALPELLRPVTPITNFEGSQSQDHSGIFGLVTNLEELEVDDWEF

Another experiment addresses T2, Ephrin type-B receptor 2 (Homo sapiens, UniProt P29323).
T2 sequence (P29323 whole entry): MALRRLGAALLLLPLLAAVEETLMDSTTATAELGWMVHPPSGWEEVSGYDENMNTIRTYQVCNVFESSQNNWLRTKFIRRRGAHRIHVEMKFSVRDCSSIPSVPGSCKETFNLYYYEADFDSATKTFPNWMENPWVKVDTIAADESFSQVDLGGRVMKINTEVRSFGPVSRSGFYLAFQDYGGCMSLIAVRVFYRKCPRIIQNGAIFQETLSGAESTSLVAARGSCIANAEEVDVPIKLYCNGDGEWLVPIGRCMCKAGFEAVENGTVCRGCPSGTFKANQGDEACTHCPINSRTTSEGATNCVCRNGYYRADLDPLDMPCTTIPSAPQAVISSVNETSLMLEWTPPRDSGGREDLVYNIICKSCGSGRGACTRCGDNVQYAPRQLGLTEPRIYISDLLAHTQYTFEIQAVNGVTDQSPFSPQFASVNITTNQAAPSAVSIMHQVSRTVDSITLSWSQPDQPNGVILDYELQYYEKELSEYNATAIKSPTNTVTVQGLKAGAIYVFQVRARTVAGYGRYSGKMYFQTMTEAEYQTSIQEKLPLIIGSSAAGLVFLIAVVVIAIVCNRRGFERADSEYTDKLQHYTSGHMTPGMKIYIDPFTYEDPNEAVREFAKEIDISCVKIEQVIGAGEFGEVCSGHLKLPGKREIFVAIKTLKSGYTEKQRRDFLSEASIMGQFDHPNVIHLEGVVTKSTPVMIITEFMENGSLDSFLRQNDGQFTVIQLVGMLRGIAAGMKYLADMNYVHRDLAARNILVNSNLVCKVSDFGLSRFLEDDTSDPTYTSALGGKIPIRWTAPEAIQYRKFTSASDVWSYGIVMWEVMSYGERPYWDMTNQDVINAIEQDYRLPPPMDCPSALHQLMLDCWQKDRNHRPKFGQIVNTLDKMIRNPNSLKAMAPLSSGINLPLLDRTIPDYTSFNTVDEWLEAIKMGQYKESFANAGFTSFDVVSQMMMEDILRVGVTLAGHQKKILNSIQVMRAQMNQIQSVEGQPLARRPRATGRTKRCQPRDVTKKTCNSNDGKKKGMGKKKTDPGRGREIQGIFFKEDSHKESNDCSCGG

The target in experiment [13] is Protein kinase C delta type (Homo sapiens, UniProt Q05655).
For experiment [14], the target named is GTP-binding nuclear protein Ran (Homo sapiens, UniProt P62826).
In the next experiment the target is Ephrin type-A receptor 7 (Homo sapiens, UniProt Q15375).
Sequence of Ephrin type-A receptor 7 (Q15375 whole entry): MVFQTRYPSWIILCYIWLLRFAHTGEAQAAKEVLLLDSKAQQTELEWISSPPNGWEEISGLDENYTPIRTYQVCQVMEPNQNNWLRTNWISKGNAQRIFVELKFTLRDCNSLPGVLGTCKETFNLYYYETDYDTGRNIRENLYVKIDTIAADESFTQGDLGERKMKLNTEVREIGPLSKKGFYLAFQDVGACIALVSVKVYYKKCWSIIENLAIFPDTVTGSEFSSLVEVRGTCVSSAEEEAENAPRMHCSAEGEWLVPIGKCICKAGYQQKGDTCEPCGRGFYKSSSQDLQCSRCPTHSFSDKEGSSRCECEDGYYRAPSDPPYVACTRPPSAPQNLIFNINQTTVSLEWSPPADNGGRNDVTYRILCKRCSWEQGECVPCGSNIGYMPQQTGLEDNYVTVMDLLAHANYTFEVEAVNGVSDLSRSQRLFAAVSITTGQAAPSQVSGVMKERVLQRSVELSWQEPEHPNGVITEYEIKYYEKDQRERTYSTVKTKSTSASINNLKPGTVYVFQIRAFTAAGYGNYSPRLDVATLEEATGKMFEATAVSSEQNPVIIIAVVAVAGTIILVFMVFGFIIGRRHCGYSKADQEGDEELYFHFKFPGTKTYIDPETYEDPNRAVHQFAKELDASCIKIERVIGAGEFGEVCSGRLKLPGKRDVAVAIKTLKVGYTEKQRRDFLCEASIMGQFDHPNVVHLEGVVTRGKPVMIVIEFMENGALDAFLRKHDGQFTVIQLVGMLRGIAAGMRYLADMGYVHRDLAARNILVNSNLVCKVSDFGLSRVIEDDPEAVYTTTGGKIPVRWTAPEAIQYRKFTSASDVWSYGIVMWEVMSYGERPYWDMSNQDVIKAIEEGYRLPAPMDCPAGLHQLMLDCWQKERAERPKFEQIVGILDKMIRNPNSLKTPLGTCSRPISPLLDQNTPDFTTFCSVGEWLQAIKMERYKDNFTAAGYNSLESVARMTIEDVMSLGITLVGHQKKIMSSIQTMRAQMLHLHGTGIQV
For experiment [15], the target named is Tyrosine-protein kinase Fyn (Homo sapiens, UniProt P06241).
Experiment [16] concerns the target T3, Serine/threonine-protein kinase Chk1 (Homo sapiens, UniProt O14757).
T3 sequence (O14757 whole entry): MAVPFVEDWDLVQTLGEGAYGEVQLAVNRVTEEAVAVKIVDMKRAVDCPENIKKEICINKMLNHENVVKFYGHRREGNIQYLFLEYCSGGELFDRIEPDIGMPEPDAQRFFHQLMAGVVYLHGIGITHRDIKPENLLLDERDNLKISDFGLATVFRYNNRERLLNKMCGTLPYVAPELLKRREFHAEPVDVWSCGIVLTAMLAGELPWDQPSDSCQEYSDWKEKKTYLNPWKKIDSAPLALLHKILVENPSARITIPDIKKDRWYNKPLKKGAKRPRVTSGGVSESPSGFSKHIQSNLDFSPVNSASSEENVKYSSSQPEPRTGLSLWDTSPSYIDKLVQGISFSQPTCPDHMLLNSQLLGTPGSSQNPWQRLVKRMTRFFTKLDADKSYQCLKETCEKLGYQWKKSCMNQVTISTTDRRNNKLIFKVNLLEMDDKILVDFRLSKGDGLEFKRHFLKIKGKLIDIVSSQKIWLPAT

We go through 12 compounds from ChEMBL document CHEMBL3991601, “The target landscape of clinical kinase drugs” (Science, 2017).

Activity calls are given as the source filed them.
Also: in the data inactive means no Kd found up to 30 µM.

Sequence of Bone morphogenetic protein receptor type-1A (P36894 whole entry): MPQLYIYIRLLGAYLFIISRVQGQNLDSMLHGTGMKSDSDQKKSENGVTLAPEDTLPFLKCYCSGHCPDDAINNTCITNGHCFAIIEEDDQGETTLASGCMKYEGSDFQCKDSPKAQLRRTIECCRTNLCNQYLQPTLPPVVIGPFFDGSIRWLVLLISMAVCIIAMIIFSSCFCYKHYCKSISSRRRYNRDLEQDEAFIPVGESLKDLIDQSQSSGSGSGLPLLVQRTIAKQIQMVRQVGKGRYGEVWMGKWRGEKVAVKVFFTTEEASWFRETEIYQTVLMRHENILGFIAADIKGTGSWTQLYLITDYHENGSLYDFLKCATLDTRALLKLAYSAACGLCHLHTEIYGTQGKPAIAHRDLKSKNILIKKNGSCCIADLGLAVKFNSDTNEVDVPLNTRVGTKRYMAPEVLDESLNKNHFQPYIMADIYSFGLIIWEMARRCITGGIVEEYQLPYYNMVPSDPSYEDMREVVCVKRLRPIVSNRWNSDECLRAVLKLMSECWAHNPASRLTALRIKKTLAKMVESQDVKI
Sequence of Mitogen-activated protein kinase 11 (Q15759 whole entry): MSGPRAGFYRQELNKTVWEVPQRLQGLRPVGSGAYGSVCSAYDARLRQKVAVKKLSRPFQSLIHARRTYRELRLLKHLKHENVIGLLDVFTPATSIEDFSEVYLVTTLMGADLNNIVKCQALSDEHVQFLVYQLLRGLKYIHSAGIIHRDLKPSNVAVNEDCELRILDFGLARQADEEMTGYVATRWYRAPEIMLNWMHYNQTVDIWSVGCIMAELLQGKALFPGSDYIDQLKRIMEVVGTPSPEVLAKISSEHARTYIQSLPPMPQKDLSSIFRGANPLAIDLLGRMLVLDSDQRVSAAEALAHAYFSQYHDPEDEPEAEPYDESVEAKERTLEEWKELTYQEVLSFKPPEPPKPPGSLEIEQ

As to `C=CCn1c(=O)c2cnc(Nc3ccc(N4CCN(C)CC4)cc3)nc2n1-c1cccc(C(C)(C)O)n1` [ADAVOSERTIB], the Kd in experiment [1], in [2], in [3], in experiment [4], in experiment [5] and in experiment [6] was > 30 µM (inactive) throughout. Also, the Kd in [7], in experiment [8], in [9], in experiment [10], in experiment [11] and in experiment [12] was > 30 µM (inactive) in each case. Moreover, the Kd (on Ephrin type-B receptor 2; in [13]; in experiment [14]; at Ephrin type-A receptor 7) was > 30 µM (inactive) throughout.

As to `CC1(C)CNc2cc(NC(=O)c3cccnc3NCc3ccncc3)ccc21` [MOTESANIB], the Kd in [8], in experiment [12] and in [14] was > 30 µM (inactive) in each case.

`COc1cc2c(N3CCN(C(=O)Nc4ccc(OC(C)C)cc4)CC3)ncnc2cc1OCCCN1CCCCC1` [TANDUTINIB]: the Kd in experiment [8] and in [12] was > 30 µM (inactive) throughout.

As to `O=S(=O)(c1cccc2cnccc12)N1CCCNCC1` [FASUDIL], the Kd in experiment [1], in experiment [3], in [6], in [8], in experiment [15] and in [9] was > 30 µM (inactive) in each case. The Kd (in [10]; in experiment [12]; on Ephrin type-B receptor 2; at Ephrin type-A receptor 7) was > 30 µM (inactive) throughout.

Consider `CCN(CCCOc1ccc2c(Nc3cc(CC(=O)Nc4cccc(F)c4)n[nH]3)ncnc2c1)CCOP(=O)(O)O` [BARASERTIB], for which the Kd (usually the constant that tells how readily two partners part at equilibrium) is > 30 µM (inactive) in experiment [1]; > 30 µM (inactive) in experiment [2]; 1.85 µM (active) in [3]; > 30 µM (inactive) in experiment [4]; > 30 µM (inactive) in experiment [5]; > 30 µM (inactive) in experiment [6]. The Kd in experiment [7], in [8], in experiment [9], in experiment [10], in [11] and in experiment [12] was > 30 µM (inactive) in each case. Also, the Kd (on Ephrin type-B receptor 2; in [13]; in experiment [14]; on Ephrin type-A receptor 7) was > 30 µM (inactive) each time.

Consider `CN(C)C/C=C/C(=O)Nc1cc2c(Nc3ccc(F)c(Cl)c3)ncnc2cc1O[C@H]1CCOC1` [AFATINIB], for which the Kd in experiment [8], in experiment [12] and in [14] was > 30 µM (inactive) each time.

On to `Cn1cnc2c(F)c(Nc3ccc(Br)cc3Cl)c(C(=O)NOCCO)cc21` [SELUMETINIB], for which the Kd in experiment [8], in experiment [12] and in experiment [14] was > 30 µM (inactive) in each case.

`Cn1c(=O)n(-c2ccc(C(C)(C)C#N)cc2)c2c3cc(-c4cnc5ccccc5c4)ccc3ncc21` [DACTOLISIB]: the Kd in experiment [1], in experiment [2], in [3], in [4], in [5] and in experiment [6] was > 30 µM (inactive) throughout. Further, the Kd (in experiment [7]; in experiment [8]; in experiment [9]; in [10]; in experiment [12]; at Ephrin type-B receptor 2) was > 30 µM (inactive) each time. For the same compound, the Kd (in [13]; in [14]; at Ephrin type-A receptor 7) was > 30 µM (inactive) throughout.

In the case of `COc1cc2c(Oc3ccc4[nH]c(C)cc4c3F)ncnc2cc1OCCCN1CCCC1` [CEDIRANIB], the Kd in experiment [8], in [15], in experiment [12] and in [14] was > 30 µM (inactive) in each case.

Take `CN(c1ncccc1CNc1nc(Nc2ccc3c(c2)CC(=O)N3)ncc1C(F)(F)F)S(C)(=O)=O` [PF-00562271]: the Kd in [1] was > 30 µM (inactive); in [3], > 30 µM (inactive); in experiment [4], 4.5 µM (active); in [5], > 30 µM (inactive); in experiment [6], > 30 µM (inactive); in experiment [8], > 30 µM (inactive). Moreover, the Kd (in experiment [9]; in experiment [10]; in experiment [11]; in experiment [12]; at Ephrin type-B receptor 2; in experiment [14]) was > 30 µM (inactive) each time.

Consider `C[C@@]1(C(=O)Nc2ccc(F)nc2)CCCN1c1nc(Nc2cc(C3CC3)n[nH]2)c2cccn2n1` [BMS-754807], for which the Kd in [12] and in [14] was > 30 µM (inactive) in each case.

Take `O=C(NOC[C@H](O)CO)c1ccc(F)c(F)c1Nc1ccc(I)cc1F` [MIRDAMETINIB]: the Kd in experiment [1], in experiment [2], in experiment [3], in experiment [4], in [5] and in experiment [6] was > 30 µM (inactive) each time. Also, the Kd in [7], in experiment [16], in [8], in [15], in experiment [9] and in experiment [10] was > 30 µM (inactive) in each case. Besides, the Kd (in experiment [11]; in experiment [12]; at Ephrin type-B receptor 2; in experiment [13]; in experiment [14]) was > 30 µM (inactive) in each case.
